Literature values in patent publication US10779570B2, “Aerosol from tobacco” (PHILIP MORRIS PRODUCTS S.A., priority 2013, dated 2020).

Conditions: smoke constituent

Row | Compound | Organ Class toxicity
1 | C=CC=C [1,3-Butadiene] | CA, RT, RDT
2 | C=CC=O [Acrolein] | RT, CT
3 | C=CC#N [Acrylonitrile] | CA, RT
4 | c1ccccc1 [Benzene] | CA, CT, RDT
5 | [C-]#[O+] [Carbon monoxide] | RDT, CT
6 | C1CO1 [Ethylene Oxide] | CA, RT, RDT
7 | Cc1ccccc1 [Toluene] | RT, RDT

Conditions: biomarker of exposure in urine

Row | Compound | Biomarker t1/2β [h]
8 | CC(=O)N[C@@H](CSC(C)CCO)C(=O)O (stereo partly drawn) [3-Hydroxy-1-methylpropyl-mercapturic acid] | 48

Same assay, conditions: biomarker of exposure in urine, plasma or blood

Row | Compound | Biomarker t1/2β [h]
9 | Nc1ccc2ccccc2c1 [2-Aminonaphthalene] | 9
10 | CC(=O)N[C@@H](CSCCC#N)C(=O)O [2-Cyanoethylmercapturic acid] | 17
11 | CC(=O)N[C@@H](CSCCO)C(=O)O [2-Hydroxyethyl-mercapturic acid] | 5
12 | CC(=O)N[C@@H](CSCCCO)C(=O)O [3-Hydroxypropyl-mercapturic acid] | 10
13 | Nc1ccc(-c2ccccc2)cc1 [4-Aminobiphenyl] | 26
14 | O=NN1CCC[C@H]1c1cccnc1 [NNN, N-nitrosonornicotine] | 15
15 | S-benzyl-mercapturic acid | 9
